US9109004B2, “Progesterone receptor antagonists” (Bayer Intellectual Property GmbH, priority 2010, dated 2015)

What was measured:
[1] = biological target: T1, human progesterone receptor A (Homo sapiens, UniProt P06401); assay: Progesterone-receptor-antagonistic action in stably transfected SK-N-MC cells, MTV-LUC reporter (PR-A); format: cell-based; conditions: antagonistic potency vs 0.1 nmol/l promegestone, 24 hours, luciferase
T1 construct: expressed in transfected cells; host or cells: SK-N-MC human neuroblastoma cells, stably transfected
T1 sequence (P06401 1-769 isoform P06401-2): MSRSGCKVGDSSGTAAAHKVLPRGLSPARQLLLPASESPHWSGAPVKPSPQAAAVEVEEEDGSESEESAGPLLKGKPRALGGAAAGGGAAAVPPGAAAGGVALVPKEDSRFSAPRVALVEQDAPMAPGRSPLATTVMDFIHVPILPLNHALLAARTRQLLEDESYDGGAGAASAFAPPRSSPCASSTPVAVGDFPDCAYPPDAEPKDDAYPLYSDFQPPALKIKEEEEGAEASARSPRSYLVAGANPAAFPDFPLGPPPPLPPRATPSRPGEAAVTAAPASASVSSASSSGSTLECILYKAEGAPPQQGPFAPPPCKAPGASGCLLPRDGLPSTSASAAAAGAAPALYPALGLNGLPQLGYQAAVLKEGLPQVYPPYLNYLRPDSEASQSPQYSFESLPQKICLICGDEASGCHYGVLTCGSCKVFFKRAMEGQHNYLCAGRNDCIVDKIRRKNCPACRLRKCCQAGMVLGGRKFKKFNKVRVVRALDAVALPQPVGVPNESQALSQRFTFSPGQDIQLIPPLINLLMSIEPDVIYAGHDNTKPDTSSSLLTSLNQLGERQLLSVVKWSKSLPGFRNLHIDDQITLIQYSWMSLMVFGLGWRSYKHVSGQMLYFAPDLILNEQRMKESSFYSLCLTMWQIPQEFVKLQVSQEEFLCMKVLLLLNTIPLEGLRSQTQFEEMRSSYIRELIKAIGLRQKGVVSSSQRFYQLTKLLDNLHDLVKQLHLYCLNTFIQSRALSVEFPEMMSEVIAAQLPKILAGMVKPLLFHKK
How it was run: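 SK-N-MC neuroblastoma cells stably expressing human PR-B or PR-A plus MMTV-LUC reporter, treated 24 h with 0.1 nmol/l promegestone plus test compound at 0.01 nmol/l–1 μmol/l. Luciferase in lysates read as RLU; values as % efficacy and IC50.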

[2] = biological target: T2, human progesterone receptor B (Homo sapiens, UniProt P06401); assay: Progesterone-receptor-antagonistic action in stably transfected SK-N-MC cells, MTV-LUC reporter (PR-B); format: cell-based; conditions: antagonistic potency vs 0.1 nmol/l promegestone, 24 hours, luciferase
T2 construct: expressed in transfected cells; host or cells: SK-N-MC human neuroblastoma cells, stably transfected
T2 sequence (P06401 1-933): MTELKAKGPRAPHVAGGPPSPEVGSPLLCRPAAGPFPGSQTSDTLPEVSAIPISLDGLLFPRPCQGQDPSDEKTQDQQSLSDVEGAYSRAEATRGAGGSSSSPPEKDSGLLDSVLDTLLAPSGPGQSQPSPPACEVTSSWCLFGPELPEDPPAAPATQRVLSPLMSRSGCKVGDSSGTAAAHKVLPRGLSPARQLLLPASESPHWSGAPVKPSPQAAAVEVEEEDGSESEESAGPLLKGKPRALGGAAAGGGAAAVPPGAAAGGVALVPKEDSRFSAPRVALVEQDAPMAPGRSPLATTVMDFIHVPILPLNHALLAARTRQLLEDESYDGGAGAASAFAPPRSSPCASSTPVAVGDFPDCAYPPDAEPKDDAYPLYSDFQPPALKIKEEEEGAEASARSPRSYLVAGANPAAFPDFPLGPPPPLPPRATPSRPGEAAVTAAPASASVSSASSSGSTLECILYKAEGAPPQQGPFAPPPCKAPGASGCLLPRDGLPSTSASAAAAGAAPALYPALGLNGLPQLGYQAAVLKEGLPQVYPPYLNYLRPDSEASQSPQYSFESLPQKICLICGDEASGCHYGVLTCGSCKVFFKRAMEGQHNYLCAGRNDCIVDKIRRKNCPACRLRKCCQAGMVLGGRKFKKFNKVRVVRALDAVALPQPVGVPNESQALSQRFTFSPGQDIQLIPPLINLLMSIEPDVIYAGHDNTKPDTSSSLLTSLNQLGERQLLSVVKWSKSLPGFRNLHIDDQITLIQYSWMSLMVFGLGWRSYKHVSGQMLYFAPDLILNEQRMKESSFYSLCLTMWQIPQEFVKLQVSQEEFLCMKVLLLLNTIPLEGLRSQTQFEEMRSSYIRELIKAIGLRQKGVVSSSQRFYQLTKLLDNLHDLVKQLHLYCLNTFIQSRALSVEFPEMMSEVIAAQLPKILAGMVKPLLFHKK
Procedure: Progesterone-Receptor-Antagonistic Action in Stable Transfectants of Human Neuroblastoma Cells (SK-N-MC Cells) with the Human Progesterone A or Progesterone B Receptor and an MTV-LUC Reporter Construct
SK-N-MC cells (human neuroblastoma cells) that have been stably transfected with plasmids that express the human progesterone receptor B (pRChPR-B-neo) or the human progesterone receptor A (pRChPR-A-neo) and a reporter construct (pMMTV-LUC), were incubated for 24 hours either in the absence (negative control) or in the presence of increasing amounts of the particular test compound (0.01 nmol/l, 0.1 nmol/l, 1 nmol/l, 10 nmol/l, 100 nmol/l and 1 μmol/l), to determine the agonistic efficacy. As positive control of reporter gene induction, the cells were treated with the synthetic gestagen promegestone (0.01 nmol/l, 0.1 nmol/l, 1 nmol/l, 10 nmol/l, 100 nmol/l and 1 μmol/l). For determination of the antagonistic activity, the cells were treated with 0.1 nmol/l promegestone and additionally with increasing amounts of the particular test compound (0.01 nmol/l, 0.1 nmol/l, 1 nmol/l, 10 nmol/l, 100 nmol/l and 1 μmol/l). The activity of the reporter gene LUC (LUC=luciferase) was determined in the cell lysates and was measured as RLU (relative light units). All measured values are given as % efficacy and as EC50 or IC50 concentrations.

In the case of `C[C@]12C[C@H](c3ccc(C(=O)N4CCNCC4)cc3)C3=C4CCC(=O)C=C4CC[C@H]3[C@@H]1CC[C@@]2(O)C(F)(F)C(F)(F)F` [Example 73, (11β,17β)-17-Hydroxy-17-(pentafluoroethyl)-11-[4-(piperazin-1-ylcarbonyl)phenyl]estra-4,9-dien-3-one], the IC50 [1] is reported as 47 nM and the IC50 [2] is reported as 120 nM.

`CC(=O)N1CCN(C(=O)c2ccc([C@H]3C[C@@]4(C)[C@@H](CC[C@@]4(O)C(F)(F)C(F)(F)F)[C@@H]4CCC5=CC(=O)CCC5=C43)cc2)CC1` [Example 74, (11β,17β)-11-{4-[(4-Acetylpiperazin-1-yl)carbonyl]phenyl}-17-hydroxy-17-(pentafluoroethyl)estra-4,9-dien-3-one] was tested, and the IC50 [1] was 6.7 nM and the IC50 [2] was 12 nM.

With `CN(C)C(=O)c1ccc([C@H]2C[C@@]3(C)[C@@H](CC[C@@]3(O)C(F)(F)C(F)(F)F)[C@@H]3CCC4=CC(=O)CCC4=C32)cc1` [Example 2, 4-[(11β,17β)-17-Hydroxy-3-oxo-17-(pentafluoroethyl)estra-4,9-dien-11-yl]-N,N-dimethylbenzamide] the IC50 [1] was 2.3 nM and the IC50 [2] was 1.2 nM.

`CN(C)CCCNC(=O)c1ccc([C@H]2C[C@@]3(C)[C@@H](CC[C@@]3(O)C(F)(F)C(F)(F)F)[C@@H]3CCC4=CC(=O)CCC4=C32)cc1` [Example 8, N-[3-(dimethylamino)propyl]-4-[(11β,17β)-17-hydroxy-3-oxo-17-(pentafluoroethyl)estra-4,9-dien-11-yl]benzamide] was tested, and the IC50 [1] was 47 nM and the IC50 [2] was 33 nM.

For `COC(=O)C1CCN(C(=O)c2ccc([C@H]3C[C@@]4(C)[C@@H](CC[C@@]4(O)C(F)(F)C(F)(F)F)[C@@H]4CCC5=CC(=O)CCC5=C43)cc2)CC1` [Example 6, methyl-1-{4-[(11β,17β)-17-hydroxy-3-oxo-17-(pentafluoroethyl)estra-4,9-dien-11-yl]benzoyl}piperidine-4-carboxylate], the IC50 [1] was 9.1 nM and the IC50 [2] was 11 nM.

In the case of `CC(C)(C)OC(=O)N1CCN(C(=O)c2ccc([C@H]3C[C@@]4(C)[C@@H](CC[C@@]4(O)C(F)(F)C(F)(F)F)[C@@H]4CCC5=CC(=O)CCC5=C43)cc2)CC1` [Example 4, tert-butyl-4-{4-[(11β,17β)-17-hydroxy-3-oxo-17-(pentafluoroethyl)estra-4,9-dien-11-yl]benzoyl}piperazine-1-carboxylate], the IC50 [1] is reported as 0.62 nM and the IC50 [2] is reported as 1.6 nM.

With `CN1CCN(C(=O)c2ccc([C@H]3C[C@@]4(C)[C@@H](CC[C@@]4(O)C(F)(F)C(F)(F)F)[C@@H]4CCC5=CC(=O)CCC5=C43)cc2)CC1` [Example 3, (11β,17β)-17-hydroxy-11-{4-[(4-methylpiperazin-1-yl)carbonyl]phenyl}-17-(pentafluoroethyl)estra-4,9-dien-3-one] the IC50 [1] was 24 nM and the IC50 [2] was 44 nM.

Work on `CN(C)CCN(C)C(=O)c1ccc([C@H]2C[C@@]3(C)[C@@H](CC[C@@]3(O)C(F)(F)C(F)(F)F)[C@@H]3CCC4=CC(=O)CCC4=C32)cc1` [Example 9, N-[2-(dimethylamino)ethyl]-4-[(11β,17β)-17-hydroxy-3-oxo-17-(pentafluoroethyl)estra-4,9-dien-11-yl]-N-methylbenzamide] yielded an IC50 [1] of 23 nM and an IC50 [2] of 18 nM.

`C[C@]12C[C@H](c3ccc(C(=O)N4CCC(C(=O)O)CC4)cc3)C3=C4CCC(=O)C=C4CC[C@H]3[C@@H]1CC[C@@]2(O)C(F)(F)C(F)(F)F` [Example 75, 1-{4-[(11β,17β)-17-Hydroxy-3-oxo-17-(pentafluoroethyl)estra-4,9-dien-11-yl]benzoyl}piperidine-4-carboxylic acid] showed an IC50 [1] of 23 nM and an IC50 [2] of 10 nM.

With `CN(C)CCNC(=O)c1ccc([C@H]2C[C@@]3(C)[C@@H](CC[C@@]3(O)C(F)(F)C(F)(F)F)[C@@H]3CCC4=CC(=O)CCC4=C32)cc1` [Example 7, N-[2-(dimethylamino)ethyl]-4-[(11β,17β)-17-hydroxy-3-oxo-17-(pentafluoroethyl)estra-4,9-dien-11-yl]benzamide] the IC50 [1] was 54 nM and the IC50 [2] was 30 nM.

Compound `C[C@]12C[C@H](c3ccc(C(=O)N4CCCCC4)cc3)C3=C4CCC(=O)C=C4CC[C@H]3[C@@H]1CC[C@@]2(O)C(F)(F)C(F)(F)F` [Example 5, (11β,17β)-17-hydroxy-17-(pentafluoroethyl)-11-[4-(piperidin-1-ylcarbonyl)phenyl]estra-4,9-dien-3-one] has an IC50 [1] of 4.7 nM and an IC50 [2] of 5 nM.

`COC(=O)c1ccccc1NC(=O)c1ccc([C@H]2C[C@@]3(C)[C@@H](CC[C@@]3(O)C(F)(F)C(F)(F)F)[C@@H]3CCC4=CC(=O)CCC4=C32)cc1` [Example 10, methyl-2-({4-[(11β,17β)-17-hydroxy-3-oxo-17-(pentafluoroethyl)estra-4,9-dien-11-yl]benzoyl}amino)benzoate] gave an IC50 [1] of 0.7 nM and an IC50 [2] of 1 nM.

`CN(CCc1ccncc1)C(=O)c1ccc([C@H]2C[C@@]3(C)[C@@H](CC[C@@]3(O)C(F)(F)C(F)(F)F)[C@@H]3CCC4=CC(=O)CCC4=C32)cc1` [Example 58, 4-[(11β,17β)-17-hydroxy-3-oxo-17-(pentafluoroethyl)estra-4,9-dien-11-yl]-N-methyl-N-[2-(pyridin-4-yl)ethyl]benzamide] gave an IC50 [1] of 5.7 nM.

`C[C@]12C[C@H](c3ccc(C(=O)N4CCN(CCN5CCCC5)CC4)cc3)C3=C4CCC(=O)C=C4CC[C@H]3[C@@H]1CC[C@@]2(O)C(F)(F)C(F)(F)F` [Example 48, (11β,17β)-17-hydroxy-17-(pentafluoroethyl)-11-[4-({4-[2-(pyrrolidin-1-yl)ethyl]piperazin-1-yl}carbonyl)phenyl]estra-4,9-dien-3-one] gave an IC50 [1] of 667 nM.

Work on `C[C@]12C[C@H](c3ccc(C(=O)NCCc4ccncc4)cc3)C3=C4CCC(=O)C=C4CC[C@H]3[C@@H]1CC[C@@]2(O)C(F)(F)C(F)(F)F` [Example 64, 4-[(11β,17β)-17-hydroxy-3-oxo-17-(pentafluoroethyl)estra-4,9-dien-11-yl]-N-[2-(pyridin-4-yl)ethyl]benzamide] yielded an IC50 [1] of 1.1 nM.

In the case of `CN(Cc1ccccc1)C(=O)c1ccc([C@H]2C[C@@]3(C)[C@@H](CC[C@@]3(O)C(F)(F)C(F)(F)F)[C@@H]3CCC4=CC(=O)CCC4=C32)cc1` [Example 51, N-benzyl-4-[(11β,17β)-17-hydroxy-3-oxo-17-(pentafluoroethyl)estra-4,9-dien-11-yl]-N-methylbenzamide], the IC50 [1] is reported as 9 nM.
